According to US12702671B2, “Calcineurin inhibitors of the setron family for the treatment of hearing loss” (SENSORION, priority 2015, dated 2026):
Where a name gives a salt, the structure may show the parent alone.

Experiments:
[1] = tested on: acoustic trauma induced hearing loss; experiment: Auditory brainstem response (ABR) thresholds after acoustic trauma; assay type: in vivo, Wistar rats
Experimental: (§1) All experiments were performed using 7 week old male Wistar rats (CERJ, Le Genest, France) in accordance with the French Ministry of Agriculture regulations and European Community Council Directive no. 86/609/EEC, OJL 358. The rats were fed a standard diet ad libitum and maintained on a 12 h light-dark cycle.
(§2) Auditory Brainstem Reponses (ABR) and Distortion Product Otoacoustic Emissions (DPOAE) were recording using a RZ6 Auditory Workstation (Tucker-Davis Technologies, Alachua, FL, USA) with animals deeply anesthetized using 90 mg/kg ketamine and 10 mg/kg xylazine and placed on a 35° C. recirculating heating pad inside a sound attenuating cubicle (Med Associates Inc., St. Albans, VT, USA) throughout the experiment.
For ABR recordings, three stainless steel needle electrodes were placed subdermally over the vertex, the right mastoid and right hind leg of each animal. Tone-pips (5 msec duration presented at a rate of 21/s) at 8, 16 and 24 kHz were delivered to the right ear using a calibrated MF-1 speaker in closed-field configuration (Tucker-Davis Technologies, Alachua, FL, USA) at attenuating intensity until no reproducible response could be recorded. Close to the ABR threshold, the responses to 1000 acoustic stimuli in 5 dB steps were averaged. Responses were low-pass filtered at 3 kHz.
(§3) Animals were exposed to 121 dB octave band noise (8-16 kHz) for 2 h in groups of 4 rats, placed in individual compartments of a custom built circular cage placed on a 30 cm diameter platform rotating at 3 turns/minute (Aqila Innovation, Valbonne, France). The calibrated octave band noise generated by the RZ6 SigGen software was further amplified by a Crown D-75 amplifier in bridge mode (Crown Audio, Elkhart, IN, USA) and delivered by four Beyma CP16 compression tweeters (Acustica Beyma S. L., Moncada, Valencia, Spain) positioned 39 cm above the rotating platform, each 10 cm from the platform center.
(§4) Animals were treated by intraperitoneal injection daily for 14 days beginning immediately after acoustic trauma induction and subsequently repeated every 24 hours. The setron compounds granisetron HCl, ondansetron HCl, tropisetron HCl and azasetron HCl (Tocris Bioscience, Bristol, UK) were delivered dissolved in saline solution (1.6 mL/kg) while Tacrolimus (Selleck Chemicals, Houston, TX, USA) was dissolved in solution composed of 10% ethanol-100%/10% Kolliphor EL/1% Tween 80/79% saline (1.0 mL/kg). Placebo treated animals received injections of 1.6 mL/kg saline following the same treatment schedule.
(§5) Statistical analysis was performed using two-way ANOVA (Audiometry data: frequency and treatment group. Cochleograms: normalized distance from apex and treatment group) followed by Holm-Sidak post-hoc test for multiple comparisons. Results are given as mean±SEM and a p value less than or equal to 0.05 considered significant.
(§6) Baseline line audiometry (ABR and DPOAE measures) was performed for each animal 3 days before acoustic trauma was induced. Subsequently, audiometry measures were repeated 24 h and 14 days after acoustic trauma.
(§7) To quantify and compare the difference in treatment effects between groups while taking into account individual baseline and trauma variability, the hearing loss (ABR threshold shift & DPOAE amplitude loss) at D14 relative to baseline, as well as the functional recovery of hearing from 24 h to D14 (ABR threshold shift & DPOAE amplitude loss) were determined for all treatment groups.

[2] = tested on: acoustic trauma induced hearing loss; experiment: Distortion product otoacoustic emissions (DPOAE) amplitudes after acoustic trauma; assay type: in vivo, Wistar rats
Experimental: as §1, §2
DPOAEs were recorded and using ER10B+ Low Noise DPOAE microphone (Etymotic Research, Inc., Elk Grove Village, IL, USA) with acoustic stimuli delivered by two calibrated MF-1 speakers in closed-field configuration (Tucker-Davis Technologies, Alachua, FL, USA). DPOAEs were recorded at fixed stimulus levels (L1=L2=70 dB SPL), with an f2/f1 ratio of 1.2. Responses were recorded at 4, 8, 16, 24 and 32 kHz.
as §3, §4, §5, §6, §7

[3] = day 14, i.p. daily for 14 days after acoustic trauma
[4] = i.p. daily for 14 days after acoustic trauma, same doses as E4

CN1C(=O)COc2c(C(=O)NC3CN4CCC3CC4)cc(Cl)cc21 (centres unmarked) [azasetron HCl, N-(1-azabicyclo[2.2.2]octan-8-yl)-6-chloro-4-methyl-3-oxo-1,4-benzoxazine-8-carboxamide]
reduction of ABR threshold shifts compared to placebo treatment [1, 3]: 35-60% | ABR threshold recovery from 24 h to day 14 compared to placebo [1, 4]: better ABR threshold recovery | hearing outcomes (ABR thresholds and DPOAE amplitudes) at 14 days after acoustic trauma compared to placebo [1, 4]: better hearing outcomes across all frequencies | ABR threshold shift from baseline to day 14 compared to placebo ([1]; i.p. daily for 14 days from immediately after 121 dB trauma, azasetron HCl 4.22, ondansetron HCl 4, tropisetron HCl 3.5, granisetron HCl 3.8, Tacrolimus 1.5 mg/kg): significantly lower ABR threshold shifts | ABR threshold improvement graded by typical clinical audiological criteria (Furuhashi et al. 2002) ([1]; placebo group only "slight improvement"): marked improvement to complete recovery | reduction of DPOAE amplitudes loss compared to placebo treatment [2, 3]: ~ 60% | DPOAE amplitude loss from baseline to day 14 compared to placebo [2, 4]: significantly reduced loss of DPOAE amplitudes | recovery of DPOAE amplitudes from 24 h post trauma to day 14 compared to placebo [2, 4]: significantly improved recovery of DPOAE amplitudes
